Data as given in patent US6423541B1, “Process for in vitro selection of high methol producing genotypes” (Council of Scientific&Industrial Reaearch, priority 2000, dated 2002).

Columns and labels:
[1] = test system: callus mediated regenerants of Mentha arvensis cv. Himalaya; assay: Survival of callus mediated regenerants from internodal explants at different concentrations of menthol; format: cell-based; settings: for Survival after 24 hours Number / Survival after 7 days Number: 20 shoots tested per replication
Text: The Applicants selected the improved plant variety cv. Himalaya (U.S. Pat. PP 10,935: Kumar et al 1999) of Mentha arvensis L. as the base material for further improvement and selection. This variety is a hybrid between variety Gomti and Kalka and bears the high proliferating habit of Gomti and high menthol content, disease tolerant characters of Kalka. The explant material was collected from the field grown plants and surface sterilized by washing sequentially with 2% detergent, distilled water containing a few drops of Savlon (Johnson and Johnson, India), 0.1% acidified mercurie chloride and autoclaved distilled water before inoculation. About 1 cm long internode pieces were inoculated in the MS medium (Murashige and Skoog 1962) containing 0.2 μg ml^−1 concentrations of the auxin 2,4 dichlorophenoxyacetic acid (2,4-D) and 7 μg ml^−1 of the cytokinin 6-(γγ′- dimethylallyl amino) purine (2iP or 2aP) (Khanuja et al. 1998). This procedure has been highly efficient in generating variation in cultures of mints with greater frequencies. The cultures were grown at 25±2° C. and 400 to 600 lux light intensity with 16-h photoperiod. The regenerated shoots were separated 12 weeks latter the explant inoculation for rooting and/or screening.
The regenerated shoots (3-4 cm long, containing the apical bud and 2-3 nodes) separated from the 2,4D/2iP medium, were inoculated into MS basal medium containing vitamins, 100 mg l^−1 myo-inositol, 3% wv^−1 sucrose, 1.5% wv^−1 agar (Difco), with or without menthol (0 to 100 μg ml^−1, concentration stepped up by 10 μg serially in each treatment). On each kind of these media, 5 independent regenerated shoots were inoculated per flask; 4 flasks were inoculated per replication and each treatment was replicated 5 times, making the number of flasks to 20 and number of explants to 100 for each concentration of menthol. Like the earlier experiment this experiment was also conducted in the completely randomised design (CRD) fashion. Cultures were incubated and maintained at 25±2° C. and 400-600 lux light intensity with 16 hour photoperiod. The nature of initial responses in explants was recorded every 24 hours over a period of one week.

[2] = test system: calliclones (regenerated shoots) of Mentha arvensis cv. Himalaya; assay: Large scale stepwise screening of calliclones on menthol screening medium; format: cell-based
Procedure: Large scale screening of clones was carried out in various batches by raising the calliclones as above. A total of 2850 shoots were transferred to the screening medium containing 50 μg ml^−1 menthol and incubated for 1 week. The surviving shoots from this medium were stepwise transferred to media containing higher concentrations of menthol ([…]). Finally the tolerant clones surviving at 70 μg ml^−1 menthol concentration were transferred individually to MS basal medium containing vitamins for rooting. The looted plantlets were subsequently hardened and transferred to pots in the glass house to raise sufficient planting material (sucker) for field experiments.
After 7 days of culture 1263 twigs survived at 50 μg ml^−1 concentration of menthol. These surviving shoots were subsequently transferred to the medium containing 60 μg ml^−1 menthol At this concentration 942 twig turned brown and died within 7 days. Finally, the 321 twigs which survived were inoculated into the screening medium containing 70 μg ml^−1 menthol. In His tertiary level screening, only 30 shoots survived (Table 5). These clones were inoculated into the rooting medium and after rooting transferred to pots in the glasshouse. The acclimatized selected plantlets from the glasshouse were transferred to the field for sucker production in the month of September 1997. In the month of January 1998, the suckers developed from each plant were field planted with 5 replicates using randomized block design. The plants grown with standard agronomic practices were harvested twice, first after 110 days of planting and subsequently 70 days after the first harvest. Ultimately, these 30 menthol tolerant clones were multiplied and grown in the field in replicated plots of 5 m×5 m sizes. The twigs of 30 clones from the replicated trials were rechecked for tolerant phenotypes at a concentration of 70 μg ml^−1 menthol wherein, these survived even after 7 days. These were also tested for survival at one step higher concentration of menthol (80 μg ml^−1). At this concentration of menthol only 5 clones (GRB 3, 14, 24, 27, 30) survived.
2. Large scale screening of the heterogeneous population of molecular variants were carried out by inoculating the regenerated independent clones into the screening medium i.e., MS basal agar containing 50 μg ml^−1 menthol followed by incubation for 1 week.
3. The surviving shoots from this medium were step-wise transferred to media containing higher concentrations of menthol (60 and 70 μg ml^−1). Finally the tolerant clones surviving at 70 μg ml^−1 menthol concentration (which cause 99% killing) are transferred individually to MS basal medium containing vitamins for rooting.

Q: CC1CCC(C(C)C)C(O)C1 (stereo not shown) [menthol] was tested. Which shoot survival ([1]; at and above 80 μg ml^−1 menthol, after 7th day) did it give?
A: The shoot survival was “No shoots were able to survive”.

Q: What about the “Survival after 24 hours %” value ([1]; menthol 10 μg ml^−1) of the same compound?
A: The value was 100%.

Q: What about the “Survival after 7 days %” value ([1]; menthol 10 μg ml^−1) of the same compound?
A: The value was 100%.

Q: What about the “Survival after 24 hours Number” value ([1]; menthol 10 μg ml^−1) of the same compound?
A: The value was 20.0 ± 0.00.

Q: What about the “Survival after 7 days Number” value ([1]; menthol 10 μg ml^−1) of the same compound?
A: Its value is 20.0 ± 0.00.

Q: What about the “Survival after 24 hours %” value ([1]; menthol 20 μg ml^−1) of the same compound?
A: The value was 100%.

Q: What about the “Survival after 7 days %” value ([1]; menthol 20 μg ml^−1) of the same compound?
A: Its value is 100%.

Q: What about the “Survival after 24 hours Number” value ([1]; menthol 20 μg ml^−1) of the same compound?
A: The value was 20.0 ± 0.00.

Q: What about the “Survival after 7 days Number” value ([1]; menthol 20 μg ml^−1) of the same compound?
A: Its value is 20.0 ± 0.00.

Q: What about the “Survival after 24 hours %” value ([1]; menthol 30 μg ml^−1) of the same compound?
A: Its value is 100%.

Q: And the “Survival after 7 days %” value ([1]; menthol 30 μg ml^−1)?
A: The value was 100%.

Q: What about the “Survival after 24 hours Number” value ([1]; menthol 30 μg ml^−1) of the same compound?
A: Its value is 20.0 ± 0.00.

Q: What about the “Survival after 7 days Number” value ([1]; menthol 30 μg ml^−1) of the same compound?
A: The value was 20.0 ± 0.00.

Q: What about the “Survival after 24 hours %” value ([1]; menthol 40 μg ml^−1) of the same compound?
A: Its value is 100%.

Q: What about the “Survival after 7 days %” value ([1]; menthol 40 μg ml^−1) of the same compound?
A: The value was 88%.

Q: And the “Survival after 24 hours Number” value ([1]; menthol 40 μg ml^−1)?
A: The value was 20.0 ± 0.00.

Q: What about the “Survival after 7 days Number” value ([1]; menthol 40 μg ml^−1) of the same compound?
A: The value was 17.6 ± 0.66.

Q: And the “Survival after 24 hours %” value ([1]; menthol 50 μg ml^−1)?
A: The value was 85%.

Q: What about the “Survival after 7 days %” value ([1]; menthol 50 μg ml^−1) of the same compound?
A: Its value is 45%.

Q: What about the “Survival after 24 hours Number” value ([1]; menthol 50 μg ml^−1) of the same compound?
A: The value was 17.0 ± 0.91.

Q: What about the “Survival after 7 days Number” value ([1]; menthol 50 μg ml^−1) of the same compound?
A: Its value is 9.0 ± 0.41.

Q: And the “Survival after 24 hours %” value ([1]; menthol 60 μg ml^−1)?
A: The value was 70%.

Q: What about the “Survival after 7 days %” value ([1]; menthol 60 μg ml^−1) of the same compound?
A: Its value is 10%.

Q: And the “Survival after 24 hours Number” value ([1]; menthol 60 μg ml^−1)?
A: The value was 14.0 ± 0.58.

Q: And the “Survival after 7 days Number” value ([1]; menthol 60 μg ml^−1)?
A: Its value is 2.0 ± 0.41.

Q: And the “Survival after 24 hours %” value ([1]; menthol 70 μg ml^−1)?
A: Its value is 45%.

Q: And the “Survival after 7 days %” value ([1]; menthol 70 μg ml^−1)?
A: Its value is 1%.

Q: What about the “Survival after 24 hours Number” value ([1]; menthol 70 μg ml^−1) of the same compound?
A: Its value is 9.0 ± 0.91.

Q: And the “Survival after 7 days Number” value ([1]; menthol 70 μg ml^−1)?
A: The value was 0.2 ± 0.26.

Q: And the shoot survival ([1]; menthol 70 μg ml^−1, within 24 hours of inoculation)?
A: Its shoot survival is “about 45%”.

Q: What about the death of shoots ([1]; menthol 70 μg ml^−1, within 7 days after inoculation) of the same compound?
A: The death of shoots was roughly 99%.

Q: What about the “Survival after 24 hours %” value ([1]; menthol 80 μg ml^−1) of the same compound?
A: The value was 20%.

Q: And the “Survival after 7 days %” value ([1]; menthol 80 μg ml^−1)?
A: Its value is 0%.

Q: What about the “Survival after 24 hours Number” value ([1]; menthol 80 μg ml^−1) of the same compound?
A: Its value is 4.0 ± 0.58.

Q: What about the “Survival after 7 days Number” value ([1]; menthol 80 μg ml^−1) of the same compound?
A: Its value is 0.0 ± 0.00.

Q: What about the “Survival after 24 hours %” value ([1]; menthol 90 μg ml^−1) of the same compound?
A: The value was 10%.

Q: And the “Survival after 7 days %” value ([1]; menthol 90 μg ml^−1)?
A: Its value is 0%.

Q: And the “Survival after 24 hours Number” value ([1]; menthol 90 μg ml^−1)?
A: The value was 2.0 ± 0.40.

Q: What about the “Survival after 7 days Number” value ([1]; menthol 90 μg ml^−1) of the same compound?
A: Its value is 0.0 ± 0.00.

Q: And the “Survival after 24 hours %” value ([1]; menthol 100 μg ml^−1)?
A: Its value is 0%.

Q: And the “Survival after 7 days %” value ([1]; menthol 100 μg ml^−1)?
A: The value was 0%.

Q: What about the “Survival after 24 hours Number” value ([1]; menthol 100 μg ml^−1) of the same compound?
A: Its value is 0.0 ± 0.00.

Q: What about the “Survival after 7 days Number” value ([1]; menthol 100 μg ml^−1) of the same compound?
A: Its value is 0.0 ± 0.00.

Q: What about the twigs survived ([2]; menthol 50 μg ml^−1, after 7 days of culture, of a total of 2850 shoots) of the same compound?
A: Its twigs survived is 1263.

Q: What about the twigs which survived ([2]; menthol 60 μg ml^−1, of the 1263 survivors of 50 μg ml^−1) of the same compound?
A: The twigs which survived was 321.

Q: And the “twigs turned brown and died” value ([2]; menthol 60 μg ml^−1, within 7 days, of the 1263 survivors of 50 μg ml^−1)?
A: The value was 942.

Q: And the killing ([2]; menthol 70 μg ml^−1)?
A: Its killing is 99%.

Q: What about the shoots survived ([2]; menthol 70 μg ml^−1, tertiary level screening of 321 twigs) of the same compound?
A: The shoots survived was 30.

Q: And the clones survived ([2]; menthol 80 μg ml^−1, twigs of the 30 selected tolerant clones from field trials)?
A: The clones survived was 5.
